From PubChem BioAssay (NCI)
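Cells were grown in 96-well plates and exposed to each compound for 48 hours at five concentrations; endpoints were interpolated linearly between bracketing concentrations, or set to the highest concentration if not reached. Here, GI50 denotes the concentration required for 50% inhibition of growth. At the TGI there is no net growth.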

Assays:
Assay in all cases: inhibition of tumour cell growth, NCI panel, 48 h
KM12 colon = system: KM12 colon
U251 CNS = system: U251 CNS
SR leukemia = system: SR leukemia
A549 NSCLC = system: A549 NSCLC
SK-MEL-5 melanoma = system: SK-MEL-5 melanoma
TK-10 renal = system: TK-10 renal
CAKI-1 renal = system: CAKI-1 renal
OVCAR-3 ovarian = system: OVCAR-3 ovarian
SK-OV-3 ovarian = system: SK-OV-3 ovarian
HCC-2998 colon = system: HCC-2998 colon

Compound `Cc1nn(-c2ccccc2)c(C)c1/C=N/N1CCN(Cc2ccccc2)CC1` has a GI50 (KM12 colon) of 31.3 µM, a TGI (KM12 colon) greater than 100 µM and a GI50 (U251 CNS) of 67.5 µM. For the same compound, the TGI (U251 CNS) was greater than 100 µM, the GI50 (SR leukemia) was 13.8 µM and the TGI (SR leukemia) was 35.1 µM. For the same compound, the GI50 (A549 NSCLC) was greater than 100 µM, the TGI (A549 NSCLC) was greater than 100 µM and the GI50 (SK-MEL-5 melanoma) was 18.7 µM. For the same compound, the TGI (SK-MEL-5 melanoma) was 36.7 µM, the GI50 (TK-10 renal) was 28.7 µM and the TGI (TK-10 renal) was greater than 100 µM. It also gave a GI50 (CAKI-1 renal) greater than 100 µM and a TGI (CAKI-1 renal) greater than 100 µM.
In the case of `COc1cc(C2C(C(=O)OCc3ccccc3)=C(C)NC(C)=C2C(=O)OCc2ccccc2)cc(OC)c1OC`, the GI50 (OVCAR-3 ovarian) is reported as 4.99 µM, the TGI (OVCAR-3 ovarian) is reported as greater than 100 µM and the GI50 (U251 CNS) is reported as 4.37 µM. It also gave a TGI (U251 CNS) greater than 100 µM, a GI50 (SK-OV-3 ovarian) of 4.78 µM and a TGI (SK-OV-3 ovarian) greater than 100 µM. It also gave a GI50 (SR leukemia) of 2.22 µM, a TGI (SR leukemia) greater than 100 µM and a GI50 (A549 NSCLC) of 3.6 µM. It also gave a TGI (A549 NSCLC) greater than 100 µM, a GI50 (CAKI-1 renal) of 3.05 µM and a TGI (CAKI-1 renal) greater than 100 µM.
For `COc1ccc2c([nH]c3cc(O)c(C)cc32)c1CC=C(C)C`, the GI50 (HCC-2998 colon) was 5.49 µM, the TGI (HCC-2998 colon) was 14.5 µM and the TGI (OVCAR-3 ovarian) was 12.4 µM. For the same compound, the GI50 (U251 CNS) was 5.89 µM, the TGI (U251 CNS) was 13.7 µM and the TGI (SK-OV-3 ovarian) was greater than 25 µM. For the same compound, the GI50 (SR leukemia) was 7.19 µM, the TGI (SR leukemia) was greater than 25 µM and the GI50 (A549 NSCLC) was 8.47 µM. The TGI (A549 NSCLC) was greater than 25 µM, the GI50 (SK-MEL-5 melanoma) was 8.04 µM and the TGI (SK-MEL-5 melanoma) was greater than 25 µM.
`CCOC(=O)/C(=C/c1ccc(Cl)cc1)N(CC)CC` was tested, and the TGI (HCC-2998 colon) was greater than 100 µM, the TGI (KM12 colon) was greater than 100 µM and the TGI (U251 CNS) was greater than 100 µM. For the same compound, the TGI (SK-OV-3 ovarian) was greater than 100 µM, the TGI (SR leukemia) was greater than 100 µM and the TGI (A549 NSCLC) was greater than 100 µM. It also gave a TGI (SK-MEL-5 melanoma) greater than 100 µM, a TGI (TK-10 renal) greater than 100 µM and a TGI (CAKI-1 renal) greater than 100 µM.
For `O=c1nc(-c2ccccc2)scc1-c1ccccc1`, the TGI (OVCAR-3 ovarian) was greater than 100 µM, the TGI (KM12 colon) was greater than 100 µM and the TGI (U251 CNS) was greater than 100 µM. It also gave a TGI (SK-OV-3 ovarian) greater than 100 µM, a TGI (SR leukemia) greater than 100 µM and a TGI (A549 NSCLC) greater than 100 µM. It also gave a TGI (SK-MEL-5 melanoma) greater than 100 µM, a TGI (TK-10 renal) greater than 100 µM and a TGI (CAKI-1 renal) greater than 100 µM.
Compound `CCC[CH2][Ge]([CH2]CCC)([CH2]CCC)[O]C(=O)C(OC(C)=O)c1ccccc1` (centres undefined) has a GI50 (HCC-2998 colon) of 0.53 µM, a TGI (HCC-2998 colon) of 5.63 µM and a GI50 (OVCAR-3 ovarian) of 0.731 µM. It also gave a TGI (OVCAR-3 ovarian) of 8.52 µM, a GI50 (KM12 colon) of 2.98 µM and a TGI (KM12 colon) of 22.1 µM. The GI50 (U251 CNS) was 1.19 µM, the TGI (U251 CNS) was 20.2 µM and the GI50 (SK-OV-3 ovarian) was 12.4 µM. It also gave a TGI (SK-OV-3 ovarian) of 55.5 µM, a GI50 (A549 NSCLC) of 3.37 µM and a TGI (A549 NSCLC) of 30.9 µM. The GI50 (SK-MEL-5 melanoma) was 0.774 µM, the TGI (SK-MEL-5 melanoma) was 11.6 µM and the GI50 (TK-10 renal) was 8.06 µM. The TGI (TK-10 renal) was 54.3 µM, the GI50 (CAKI-1 renal) was 13.7 µM and the TGI (CAKI-1 renal) was 47.4 µM.
Compound `Cc1csc(-c2ccc3c(c2)COC3(CCCN(C)C)c2ccc(F)cc2)c1` (centres undefined) has a GI50 (HCC-2998 colon) of 1.79 µM, a TGI (HCC-2998 colon) of 3.3 µM and a GI50 (OVCAR-3 ovarian) of 1.81 µM. The TGI (OVCAR-3 ovarian) was 3.37 µM, the GI50 (KM12 colon) was 1.95 µM and the TGI (KM12 colon) was 3.75 µM. For the same compound, the GI50 (U251 CNS) was 1.85 µM, the TGI (U251 CNS) was 3.76 µM and the GI50 (SK-OV-3 ovarian) was 1.87 µM. For the same compound, the TGI (SK-OV-3 ovarian) was 3.69 µM, the GI50 (A549 NSCLC) was 2.02 µM and the TGI (A549 NSCLC) was 4.24 µM. It also gave a GI50 (SK-MEL-5 melanoma) of 1.82 µM, a TGI (SK-MEL-5 melanoma) of 3.26 µM and a GI50 (TK-10 renal) of 1.83 µM. It also gave a TGI (TK-10 renal) of 3.72 µM, a GI50 (CAKI-1 renal) of 1.62 µM and a TGI (CAKI-1 renal) of 3.01 µM.
For `Cc1cn2c(/C=N/N=C(N)N)c(-c3cc(Cl)sc3Cl)nc2s1`, the GI50 (HCC-2998 colon) was 0.888 µM, the TGI (HCC-2998 colon) was 1.6 µM and the GI50 (KM12 colon) was 0.736 µM. For the same compound, the TGI (KM12 colon) was 1.59 µM, the GI50 (SK-OV-3 ovarian) was 1.15 µM and the TGI (SK-OV-3 ovarian) was 2.78 µM. For the same compound, the GI50 (SK-MEL-5 melanoma) was 0.905 µM, the TGI (SK-MEL-5 melanoma) was 1.74 µM and the GI50 (TK-10 renal) was 1.15 µM. The TGI (TK-10 renal) was 2.95 µM, the GI50 (CAKI-1 renal) was 6.18 µM and the TGI (CAKI-1 renal) was 26 µM.
